Measurements published in US10220025B1, “Self-emulsifying formulation of CARP-1 functional mimetics” (Florida A&M University, priority 2016, dated 2019).
“Also recorded” adds a separate entry of the source. Like-named read-outs stand apart in the source and are kept apart here.

Experiments:
TNBC and NSCLC cells = conditions: cited from earlier work
[1] = test system: MDA-MB-468 TNBC cells, wild type; assay: MTT viability assay, parental MDA-MB-468; type: cell-based, human; conditions: for inhibition of viability compared with CFM-4: 20 μM, 24 h, FIG. 3A
Procedure: (§2) In vitro inhibition of cell growth was assessed by MTT (3-[4, 5-dimethyltiazol-2-yl]-2.5-diphenyl tetrazolium bromide) reagent. Cells (5×10^3) were seeded in a 96-well culture plate and subsequently treated with respective agents at different concentrations as mentioned. Control cells were treated with 0.1% DMSO in culture medium. After treatment, the cells were incubated with 1 mg/ml of MTT reagent at 37° C. for 2-4 hours and then MTT was removed and 50 μL of DMSO was added, followed by colorimetric analysis using a multi-label plate reader at 560 nm (Victor3; PerkinElmer, Wellesley, Mass., USA).

TNBC cells = assay: MTT viability assay, parental TNBC cells (lines not singled out); type: cell-based
Procedure: as §2

[2] = test system: HeLa cervical cancer cells; assay: MTT viability assay, HeLa; type: cell-based; conditions: 20 μM; 24 h; FIG. 3A
Text: The current inventors' previous studies have indicated cancer cell growth inhibitory properties of CFMs in particular CFM-4 and CFM-5 [Puliyappadamba et al.]. […] J. Biomed. Nanotechnol. 2015; 11:1608-1627]. […] J. Biomed. Nanotechnol. 2015; 11:1608-1627]. On the basis of these findings, it was speculated that solubility and/or potency of the CFM-4 scaffold could be improved for its utility as a novel anti-TNBC molecule. To address this possibility, twelve (12) additional analogs of CFM-4 (Table 2) were synthesized using medicinal chemistry based structure activity relationship (SAR) studies. Each of the analog was suspended in DMSO, and their potency was evaluated in cell culture studies utilizing HeLa cervical cancer, MDA-MB-468 TNBC, and H2461 malignant pleural mesothelioma (MPM) cells by MTT based assays. […] Moreover, a 10 μM dose of CFM-4 inhibited MDA-MB-231 and MDA-MB-468 viabilities by ˜30% and 45%, respectively.

[3] = test system: Adriamycin-resistant (ADR-R) MDA-MB-468 sublines; assay: MTT viability assay, ADR-resistant MDA-MB-468 sublines; type: cell-based, human; conditions: ADR-resistant MDA-MB-468 subline 1; FIG. 5E
Procedure: (§1) Human TNBC MDA-MB-468 and MDA-MB-231, and mouse TNBC 4T1 cells were cultured in the chronic presence (>10 months) of Doxorubicin. The parental, wild-type cells were initially treated with 200 nM Doxorubicin for 2-3 weeks, followed by escalation to 400 nM, 1 μM, and 2 μM doses over a period of 3-4 weeks for each dose till resistance developed and the cells became well adapted to growth in […] of Doxorubicin for their routine culture. In the case of Cisplatin however, the human TNBC MDA-MB-468 and MDA-MB-231 were initially cultured in continuous presence of 1 μM Cisplatin for 3-4 weeks, and the dose was escalated to 1.5 μM and 3 μM over periods of 3-4 weeks for each dose till resistance developed and cells became adapted to routine culture in 3 μM dose. Subsequent, routine maintenance of the resistant cells in the presence of the respective drug was continued and multiple, resistant sublines for each of the TNBC cells were isolated and characterized for their growth inhibitory (GI)50 dose of respective therapeutic by the MTT-based viability assays as below.

[4] = test system: parental and drug-resistant TNBC and SKBR-3 cells; assay: scratch/wound healing cell migration assay; type: cell-based; conditions: FIGS. 11B, 11C, 12A, 12B, 13A, 13B
Procedure: The TNBC cells migration in the absence or presence of CFMs was measured by the “scratch/wound healing” assay. Cells were seeded in a 6-well plate (˜10,000 cells/well), and when attached, a scratch was created in the cell monolayer using sterile pipette tip. The cells were then allowed to continue growing in the absence (Control) or presence of noted dose of each of the agents for indicated time periods. The cells were photographed at the beginning and at regular intervals during the treatment period, and the images from control cells were compared with the treated cells to determine the migration of the cells essentially as described before [Liang C C, Park A Y, Guan J L In vitro scratch assay: a convenient and inexpensive method for analysis of cell migration in vitro. Nat Protoc. 2007; 2:329-33]. The photomicrographs of the cells were recorded under different magnifications utilizing Zeiss microscope with attached 35 mm camera.

[5] = test system: MDA-MB-231 TNBC cells, wild type; assay: MTT viability assay, parental MDA-MB-231; type: cell-based, human
Procedure: as §2

[6] = test system: Src, MET, and STAT3 kinases in TNBC cells; assay: Western blot, oncogenic tyrosine kinases; type: cell-based; conditions: parental and drug-resistant human and murine TNBC cells
Procedure: For protein expression analysis, Western blot (WB) experiments were performed according to the standard procedures. The cells were either untreated or treated with various agents either alone or in combinations as indicated. Following treatment durations, the cells were lysed in cell lysis (10×) buffer (#9803; cell signaling) containing 0.1% of protease and phosphatase inhibitor cocktail (Sigma) for 20 min at 4° C. The lysates were centrifuged at 14,000 rpm at 4° C. for 15-20 min to remove debris. Protein concentrations of whole cell lysates were determined using the Protein Assay Kit. Supernatant proteins, 50-100 μg from each sample, were separated by SDS-polyacrylamide gel electrophoresis (SDS-PAGE) and transferred to polyvinylidene difluoride (PVDF) membrane (Bio-rad, Hercules, Calif.) by standard procedures. […] The antibody-bound proteins were visualized by treatment with the chemiluminescence detection reagent according to manufacturer's instructions, followed by exposure to X-ray film (Denville Scientific Inc.). The same membranes were re-probed with the anti-β-actin or anti-α-tubulin antibody, which was used as an internal control for protein loading.

HUVECs = assay: in vitro tubule formation (angiogenesis) assay; type: cell-based, human; conditions: 12 hours; FIG. 11A
Procedure: The growth of tubules was monitored over a period of 12 hours. The cells growth in the scratch assay was recorded by photography. Representative photomicrographs of control and treated cells are presented.
It was next investigated whether CFM-4.16 inhibited TNBC cell migration and growth as colonies in soft agar and 3-dimensional cultures in vitro. In addition, an in vitro tubule formation assay was conducted to determine anti-angiogenic properties of CFM-4.16. […] Moreover, treatments with CFM-4 or CFM-4.16 prevented the parental as well as drug (ADR- or cisplatin-) resistant TNBC sublines and the parental and Herceptin-resistant, Her-2-positive SKBR-3 cells from growing in the areas of wound caused by a scratch (FIGS. 11B, 11C, 12A, 12B, 13A, and 13B).

solubility observations = type: physicochemical
[7] = test system: TNBC and non-small cell lung cancer cell-derived xenografts; conditions: SCID mice; cited from earlier work
[8] = test system: parental and drug-resistant TNBC and SKBR-3 cells; assay: soft-agar clonogenic assay; type: cell-based; conditions: 10 μM; FIGS. 11D, 12C, 12D, 13C
Procedure: A soft-agar sandwich assay was performed. Cells were sandwiched between 0.6% and 0.3% agarose in DMEM medium containing 5% FBS in a six-well chamber (500 cells/chamber), and treated with buffer (Control), or respective agent for noted time and dose at 37° C. humidified CO2 incubator. The colonies from multiple random fields were counted, compared to control and photographed essentially as described before [Jamal S, Cheryan V T, Muthu M, Munie S, Levi E, Ashour A E, Pass H I, Wali A, Singh M, Rishi A K. CARP-1 functional mimetics are a novel class of small molecule inhibitors of malignant pleural mesothelioma cells. PLos One. 2014; 9:e891; Ashour A E, Jamal S, Cheryan V T, Muthu M, Zoheir K M A, Alafeefy A M, Abd-allah A R, Levi E, Tarca A L, Polin L A, Rishi A K. CARP-1 functional mimetics: A novel class of small molecule inhibitors of medulloblastoma cell growth. PLoS One. 2013; 8:e66733; Zhang L, Levi E, Majumder P, Yu Y, Aboukameel A, Du J, Xu H, Mohammad R M, Hatfield J S, Wali A, Adsay V, Majumdar A P N, Rishi A K. Transactivator of transcription tagged cell cycle and apoptosis regulatory protein-1 peptides suppress growth of human breast cancer cells in vitro and in vivo. Mol Cancer Ther. 2007; 6:1661-1672].

[9] = test system: Cisplatin-resistant (Cis-R) MDA-MB-468 sublines; assay: MTT viability assay, Cisplatin-resistant MDA-MB-468 sublines; type: cell-based, human
Procedure: as §1

[10] = test system: Cisplatin-resistant (Cis-R) MDA-MB-231 sublines; assay: MTT viability assay, Cisplatin-resistant MDA-MB-231 sublines; type: cell-based, human
Procedure: as §1

[11] = test system: 4T1 TNBC cells, wild type; assay: MTT viability assay, parental 4T1; type: cell-based, mouse; conditions: FIG. 10; single agent
Procedure: as §2

[12] = test system: parental and drug-resistant human TNBC cells; conditions: human, 12 h
Procedure: Control cells were treated with 0.1% DMSO in culture medium.

## O=C1N(Cc2cccc3ccccc23)c2ccccc2C12NN=C(c1ccccc1)S2 (stereo not shown) [CFM-4.6]
TNBC and NSCLC cells
  growth of TNBC and NSCLC cells: inhibited growth

## O=C1N(Cc2ccc3ccccc3c2)c2ccccc2C12NN=C(c1ccccc1)S2 (stereo not shown) [CFM-4.8]
[1]
  inhibition of viability compared with CFM-4: greater inhibition of viability

## COc1ccc2c(c1)C1(NN=C(c3ccccc3)S1)C(=O)N2Cc1ccccc1Cl (stereo not shown) [CFM-4.11]
[1]
  inhibition of viability compared with CFM-4: greater inhibition of viability

## COc1cccc(C2=NNC3(S2)C(=O)N(Cc2ccccc2Cl)c2ccccc23)c1 (stereo not shown) [CFM-4.17]
TNBC cells; SAR screen of twelve analogs
  activity relative to parent compound CFM-4 or other analogs: superior
[2]
  inhibition of viability compared with CFM-4: greater inhibition of viability
[1]
  inhibition of viability compared with CFM-4: greater inhibition of viability

## O=C1N(Cc2ccccc2Cl)c2ccccc2C12NN=C(c1ccccc1)S2 (stereo not shown) [CFM-4]
[3]
  effect of siRNA-mediated depletion of CARP-1 on growth inhibition by the compound: interfered with growth inhibition
[4]
  growth of cells in the areas of wound caused by a scratch: prevented
[5]; 10 μM dose
  inhibition / loss of cell viability: ~30%
[6]
  activation and/or expression of MET and Src tyrosine kinases: reduced activation and/or expression
HUVECs
  tubule formation by HUVECs compared with untreated control: disruption of tubule formation
Solubility observations
  aqueous solubility: poor aqueous solubility
[7]
  xenograft growth inhibition / T/C, intravenous DMSO+cremophor preparation: failed to inhibit growth; also recorded: lack therapeutic T/C values
TNBC and NSCLC cells
  growth of TNBC and NSCLC cells: inhibited growth
[8]
  colonies formed in soft agar: significant reduction in size and number of colonies
[1]; 10 μM dose
  inhibition / loss of cell viability: ~45%

## N.N.[Cl][Pt][Cl] [Cisplatin]
[9]; 72 h, Cis-R Clone 1-2, read-out: GI50
  GI50: ~6.6 µM
[9]; 72 h, Cis-R Clone 3, read-out: GI50
  GI50: ~12 µM
[9]; 72 h, Cis-R Clones 4-6, read-out: GI50
  GI50: ~15 µM
[9]; cisplatin-resistant MDA-MB-468 vs parental
  GI50 dose higher than wild-type, parental cells: 4-9 fold
[9]; read-out: GI50 dose, Cisplatin-resistant MDA-MB-468 sublines
  GI50: 6 to 15 µM
[5]; 72 h, Wild type
  GI50: ~1.65 µM
TNBC cells; 72 h treatment period, read-out: GI50 doses, both the parental TNBC cell lines
  GI50: ~1.65 µM
TNBC cells; parental cells, read-out: GI50 dose, parental cells
  GI50: 1.65 µM
[10]; 72 h, Cis-R Clones 1-6, read-out: GI50
  GI50: ≥ 150 µM
[10]; cisplatin-resistant MDA-MB-231 vs parental
  GI50 dose higher than wild-type, parental counterparts: ≥ 90 fold
[10]; read-out: GI50 dose, Cisplatin-resistant MDA-MB-231 sublines
  GI50: ≥ 150 µM
[1]; 72 h, Wild type
  GI50: ~1.65 µM

## Cc1nc(Nc2ncc(C(=O)Nc3c(C)cccc3Cl)s2)cc(N2CCN(CCO)CC2)n1 [Dasatinib]
[11]
  reduction / loss of viability: ~60%
[12]
  loss of viability, single agent: 20-40%

## O=C1NC(=O)[C@@H](c2cn3c4c(cccc24)CCC3)[C@@H]1c1c[nH]c2ccccc12 [Tivatinib]
[12]
  loss of viability, single agent: 20-40%
